{
  "source": "patent US7638509B2",
  "about": "“Diene compounds and formulations” (priority 2003, dated 2009)",
  "key": {"AR [1]": {"molecular_target": "T1, AR (Homo sapiens, UniProt P10275, T878A)", "T1 construct": "LNCaP without transfection; endogenous in cells; host or cells: LNCaP", "T1 sequence (P10275 1-920 T878A)": "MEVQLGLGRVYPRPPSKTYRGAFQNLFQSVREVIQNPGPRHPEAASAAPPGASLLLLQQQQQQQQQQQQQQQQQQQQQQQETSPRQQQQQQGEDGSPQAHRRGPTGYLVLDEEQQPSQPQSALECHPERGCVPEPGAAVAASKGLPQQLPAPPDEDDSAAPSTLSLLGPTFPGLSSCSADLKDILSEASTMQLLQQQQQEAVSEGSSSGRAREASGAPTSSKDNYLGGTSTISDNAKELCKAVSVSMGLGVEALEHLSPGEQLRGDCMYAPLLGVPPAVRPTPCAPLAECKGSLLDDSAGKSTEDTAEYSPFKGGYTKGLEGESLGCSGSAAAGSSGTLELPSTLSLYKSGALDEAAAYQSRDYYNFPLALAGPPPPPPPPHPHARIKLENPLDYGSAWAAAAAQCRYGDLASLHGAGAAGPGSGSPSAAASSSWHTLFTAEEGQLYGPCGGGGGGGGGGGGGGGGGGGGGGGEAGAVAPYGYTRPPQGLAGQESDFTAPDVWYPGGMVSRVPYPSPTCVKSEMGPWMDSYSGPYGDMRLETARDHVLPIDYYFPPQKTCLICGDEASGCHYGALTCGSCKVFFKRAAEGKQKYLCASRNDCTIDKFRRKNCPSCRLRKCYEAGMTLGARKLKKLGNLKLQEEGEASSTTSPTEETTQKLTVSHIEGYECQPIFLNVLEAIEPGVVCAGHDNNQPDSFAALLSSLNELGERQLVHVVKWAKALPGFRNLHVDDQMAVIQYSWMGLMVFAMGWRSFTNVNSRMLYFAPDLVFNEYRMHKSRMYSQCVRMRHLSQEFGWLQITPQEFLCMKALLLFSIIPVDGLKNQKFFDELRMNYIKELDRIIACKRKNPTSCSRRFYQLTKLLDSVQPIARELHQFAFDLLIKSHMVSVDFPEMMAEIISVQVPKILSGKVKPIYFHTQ", "experiment": "Adiol-induced AR transcription, MMTV-Luc in LNCaP cells", "assay_type": "cell-based", "conditions": "2.5 nM Adiol, compound at 1 μM", "method": "(§1) Cell Culture, Transfection, and Reporter Gene Assay. The human prostate cancer cell lines, LNCaP, PC-3, and DU145, and non-prostate cancer cell line COS-1 were maintained in RPMI or Dulbecco's modified Eagle's medium (DMEM) (Life Technologies) supplemented with 10% fetal bovine serum (FBS). Transfections and luciferase (Luc) assays were performed as previously described (Miyamoto, H., Yeh, S., Wilding, G. & Chang, C. (1998) Proc. Natl. Acad. Sci. USA 95, 7379-7384; Miyamoto, H., Rahman, M., Takatera, H., Kang, H.-Y., Yeh, S., Chang, H.-C., Nishimura, K., Fujimoto, N. & Chang, C. (2002) J. Biol. Chem. 277, 4609-4617). Briefly, cells seeded to reach a density of 50-60% confluence in 12 well tissue culture plates were transfected with 1.5 μg of DNA according to “SuperFect transfection” instructions (Qiagen). After 2-3 h incubation, cells were treated with medium supplemented with charcoal-stripped FBS containing either ethanol or ligands for 24 h. The cells were then harvested and whole cell extracts were used for Luc assay. The Luc activity was determined using a Dual-Luciferase Reporter Assay System (Promega) and luminometer.\n(§2) Effect of ADEK on AR Transcription. […] (set as 100%). Values were obtained from the mean±SD of at least three determinations."}, "wild-type AR [2]": {"molecular_target": "T2, wild-type AR (Homo sapiens, UniProt P10275)", "T2 sequence (P10275 1-920)": "T1 sequence (P10275 1-920 T878A) with A878T", "experiment": "Adiol-induced AR transcription, MMTV-Luc in PC-3 cells with pSG5-AR", "assay_type": "cell-based", "design": "expressed in transfected cells; host or cells: PC-3", "conditions": "PC-3, 2.5 nM Adiol, compound at 1 μM", "method": "as §1, §2"}, "wild-type AR [3]": {"molecular_target": "T2, wild-type AR", "experiment": "Competitive [3H]-R1881 ligand binding assay, extracts of COS-1 transfected with wild-type AR", "design": "expressed in transfected cells; host or cells: COS-1", "conditions": "1 nM [3H]-R1881, unlabeled ligand 1-10,000 nM, relative to DHT", "method": "(§3) Ligand Binding Assay. Whole cell extracts from COS-1 with transient transfection of pSG5-AR, or LNCaP without transfection, were incubated for 2 h at 37° C. with 1 nM [^3H]-synthetic androgen methyltrienolone (R1881) in the presence and absence of increasing concentrations (1-10,000 nM) of unlabeled ligands. Then, hydroxyapatite (Bio-Rad) was added and stirred for 15 min at 4° C. After centrifugation and washing, radioactivity was determined by scintillation counting.\n(§4) Clinically available antiandrogens have an affinity for the AR, allowing a competition with androgens for binding. To determine whether ADEK has this common feature of AR antagonists, the competitive androgen binding assay was performed."}, "AR [4]": {"molecular_target": "T1, AR", "experiment": "Competitive [3H]-R1881 ligand binding assay, LNCaP whole cell extracts", "conditions": "1 nM [3H]-R1881, unlabeled ligand 1-10,000 nM, relative to DHT", "method": "as §3, §4"}, "wild-type AR [5]": {"molecular_target": "T2, wild-type AR", "experiment": "AR transcription, MMTV-Luc reporter in COS-1 cells co-transfected with pSG5-AR", "assay_type": "cell-based", "design": "expressed in transfected cells; host or cells: COS-1", "conditions": "COS-1, 1 nM DHT", "method": "(§5) Cell Culture, Transfection, and Reporter Gene Assay. The human prostate cancer cell lines, LNCaP, PC-3, and DU145, and non-prostate cancer cell line COS-1 were maintained in RPMI or Dulbecco's modified Eagle's medium (DMEM) (Life Technologies) supplemented with 10% fetal bovine serum (FBS). […] Briefly, cells seeded to reach a density of 50-60% confluence in 12 well tissue culture plates were transfected with 1.5 μg of DNA according to “SuperFect transfection” instructions (Qiagen). After 2-3 h incubation, cells were treated with medium supplemented with charcoal-stripped FBS containing either ethanol or ligands for 24 h. The cells were then harvested and whole cell extracts were used for Luc assay. The Luc activity was determined using a Dual-Luciferase Reporter Assay System (Promega) and luminometer.\n(§6) The pSG5-AR was co-transfected in COS-1 cells. […] Values were obtained from the mean±SD of at least three determinations. DU145 cells were transfected with the pSG5-AR and MMTV-Luc in the presence or absence of pSG5-ARA70. […] Values were obtained for the mean±SD of at least three determinations."}, "mutant AR": {"molecular_target": "T3, mutant AR (Homo sapiens, UniProt P10275, T878A)", "T3 construct": "LNCaP without transfection; endogenous in cells; host or cells: LNCaP", "T3 sequence (P10275 1-920 T878A)": "T1 sequence (P10275 1-920 T878A)", "experiment": "AR transcription, MMTV-Luc reporter in LNCaP cells", "assay_type": "cell-based", "method": "as §5, §6"}, "PSA": {"tested_on": "PSA", "experiment": "PSA expression in LNCaP cells, Western blot", "assay_type": "cell-based, human", "conditions": "48 h, 1 nM DHT or 1 μM HF, casodex, ADEK in absence of DHT", "quoted_text": "Western Blot. […] An antibody for -actin (Santa Cruz Biotechnology) was used as the internal control. Blots were quantitated by Collage software (Fotodyne).\nThe 33-kDa protein was quantitated. β-Actin expression was used as an internal control. […] The mean±SD of three separate experiments was determined. […] Total cell number was counted by hemocytometer. The mean of at least three determinations was determined."}},
  "note": "Positions count from the first letter of the chain named.",
  "data": [
    {"smiles": "CC(C)(O)C(=O)Nc1ccc([N+](=O)[O-])c(C(F)(F)F)c1", "note": "[HF, hydroxyflutamide, reference compound]", "values": [
      {"measurement": "block of Adiol-induced AR transcription (in words)", "setting": "AR [1]", "value": "failed to significantly block"},
      {"measurement": "block of Adiol-induced AR transcription (in words)", "setting": "wild-type AR [2]", "value": "failed to significantly block"},
      {"measurement": "RBA in COS-1 with AR", "setting": "wild-type AR [3]", "value": 17.1},
      {"measurement": "RBA in LNCaP", "setting": "AR [4]", "value": 23.0},
      {"measurement": "suppression of DHT-induced wild-type AR transcription compared with ADEK at 1 μM (21%), in words", "setting": "wild-type AR [5]", "value": "similar"},
      {"measurement": "suppression of DHT-induced mutant AR transcription (in words)", "setting": "mutant AR; 10 μM", "value": "no suppression"},
      {"measurement": "agonist / androgenic activity on mutant AR transcription (in words)", "setting": "mutant AR; MMTV-Luc, HF at 10 μM", "value": "full agonist"},
      {"measurement": "endogenous PSA expression over mock treatment", "setting": "PSA", "value": 3.5, "unit": "fold"}
    ]}
  ]
}
